{"source": "ChEMBL document CHEMBL1151840", "about": "“Synthetic oligoribonucleotides containing arabinonucleotides act as agonists of TLR7 and 8” (Bioorg Med Chem Lett, 2009)", "key": {"[1]": {"assay": "Stability in human serum assessed as full-length compound remaining after 10 mins by anion-exchange HPLC", "assay_type": "ADME, cell-free", "conditions": "read-out: Stability"}, "[2]": {"biological_target": "T1, Toll-like receptor 8 (Homo sapiens) (UniProt Q9NR97)", "T1 sequence (whole entry)": "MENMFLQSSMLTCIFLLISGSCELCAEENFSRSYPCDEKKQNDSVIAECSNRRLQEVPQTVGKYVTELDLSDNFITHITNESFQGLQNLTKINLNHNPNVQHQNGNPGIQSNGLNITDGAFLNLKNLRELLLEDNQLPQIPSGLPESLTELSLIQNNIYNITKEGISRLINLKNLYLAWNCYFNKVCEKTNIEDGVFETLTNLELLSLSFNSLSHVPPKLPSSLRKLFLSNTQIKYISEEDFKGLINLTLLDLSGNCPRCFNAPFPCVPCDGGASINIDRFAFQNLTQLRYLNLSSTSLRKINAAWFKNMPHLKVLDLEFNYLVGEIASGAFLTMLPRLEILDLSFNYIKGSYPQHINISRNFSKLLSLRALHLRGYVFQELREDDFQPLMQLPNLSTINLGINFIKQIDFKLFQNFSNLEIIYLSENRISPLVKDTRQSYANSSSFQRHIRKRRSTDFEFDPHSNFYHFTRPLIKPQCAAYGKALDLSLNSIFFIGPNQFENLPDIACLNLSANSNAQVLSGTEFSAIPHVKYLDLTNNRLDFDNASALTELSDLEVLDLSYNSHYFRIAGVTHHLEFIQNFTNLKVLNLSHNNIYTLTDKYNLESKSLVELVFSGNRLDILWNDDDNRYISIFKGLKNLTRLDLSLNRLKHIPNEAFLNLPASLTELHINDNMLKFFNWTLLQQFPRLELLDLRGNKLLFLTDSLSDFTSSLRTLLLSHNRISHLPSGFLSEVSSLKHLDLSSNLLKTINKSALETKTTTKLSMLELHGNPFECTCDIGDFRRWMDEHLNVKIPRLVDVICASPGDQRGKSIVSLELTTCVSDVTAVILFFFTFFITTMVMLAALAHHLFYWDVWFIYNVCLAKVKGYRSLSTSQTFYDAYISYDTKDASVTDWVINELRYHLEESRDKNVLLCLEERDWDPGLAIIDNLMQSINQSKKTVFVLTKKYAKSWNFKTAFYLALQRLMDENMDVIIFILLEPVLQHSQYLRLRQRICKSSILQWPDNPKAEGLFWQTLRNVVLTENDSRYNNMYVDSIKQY", "assay": "Agonist activity at human TLR8 expressed in HEK293XL cells assessed as NF-kappaB activation after 18 hrs", "assay_type": "functional, cell-based"}, "[3]": {"biological_target": "T2, Toll-like receptor 7 (Homo sapiens) (UniProt Q9NYK1)", "T2 sequence (whole entry)": "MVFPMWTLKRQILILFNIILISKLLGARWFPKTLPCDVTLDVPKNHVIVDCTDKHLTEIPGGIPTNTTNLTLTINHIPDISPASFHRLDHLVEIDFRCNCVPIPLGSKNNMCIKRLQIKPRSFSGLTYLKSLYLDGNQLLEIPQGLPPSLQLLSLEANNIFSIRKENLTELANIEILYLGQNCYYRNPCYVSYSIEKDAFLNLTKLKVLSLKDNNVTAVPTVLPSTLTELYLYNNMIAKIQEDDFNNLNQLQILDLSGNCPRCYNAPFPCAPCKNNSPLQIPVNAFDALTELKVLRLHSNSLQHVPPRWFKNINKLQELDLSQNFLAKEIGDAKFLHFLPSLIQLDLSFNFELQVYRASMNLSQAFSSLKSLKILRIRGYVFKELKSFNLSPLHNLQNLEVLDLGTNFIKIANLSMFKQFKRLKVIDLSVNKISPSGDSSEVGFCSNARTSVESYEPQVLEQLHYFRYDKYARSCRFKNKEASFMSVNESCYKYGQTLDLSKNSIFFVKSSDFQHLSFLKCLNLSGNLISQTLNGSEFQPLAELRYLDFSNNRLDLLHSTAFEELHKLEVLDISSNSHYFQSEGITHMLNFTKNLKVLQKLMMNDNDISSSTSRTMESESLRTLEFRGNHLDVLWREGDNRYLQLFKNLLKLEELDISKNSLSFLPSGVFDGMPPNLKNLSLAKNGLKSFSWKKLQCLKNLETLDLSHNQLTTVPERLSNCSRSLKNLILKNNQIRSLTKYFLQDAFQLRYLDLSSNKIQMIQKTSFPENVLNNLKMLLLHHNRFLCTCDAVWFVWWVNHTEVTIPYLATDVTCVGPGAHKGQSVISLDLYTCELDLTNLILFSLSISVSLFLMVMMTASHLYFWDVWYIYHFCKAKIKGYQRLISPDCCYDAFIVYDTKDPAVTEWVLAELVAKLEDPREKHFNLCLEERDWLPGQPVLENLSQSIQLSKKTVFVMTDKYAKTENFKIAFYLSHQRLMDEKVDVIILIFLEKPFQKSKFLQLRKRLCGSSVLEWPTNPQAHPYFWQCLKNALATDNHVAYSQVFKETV", "assay": "Agonist activity at human TLR7 expressed in HEK293XL cells assessed as NF-kappaB activation at 300 ug/ml after 18 hrs", "assay_type": "functional, cell-based"}, "PBMC [4]": {"tested_on": "PBMC", "assay": "Stimulation of immune response in human PBMC assessed as induction of IL1-beta production at 150 ug/ml after 24 hrs", "assay_type": "functional, cell-based"}, "PBMC [5]": {"tested_on": "PBMC", "assay": "Stimulation of immune response in human PBMC assessed as induction of IL2R level at 150 ug/ml after 24 hrs", "assay_type": "functional, cell-based"}, "PBMC [6]": {"tested_on": "PBMC", "assay": "Stimulation of immune response in human PBMC assessed as induction of IL8 production at 150 ug/ml after 24 hrs", "assay_type": "functional, cell-based"}, "PBMC [7]": {"tested_on": "PBMC", "assay": "Stimulation of immune response in human PBMC assessed as induction of IL10 production at 150 ug/ml after 24 hrs", "assay_type": "functional, cell-based"}, "PBMC [8]": {"tested_on": "PBMC", "assay": "Stimulation of immune response in human PBMC assessed as induction of IL12 production at 150 ug/ml after 24 hrs", "assay_type": "functional, cell-based"}, "PBMC [9]": {"tested_on": "PBMC", "assay": "Stimulation of immune response in human PBMC assessed as induction of IFNalpha production at 150 ug/ml after 24 hrs", "assay_type": "functional, cell-based"}, "PBMC [10]": {"tested_on": "PBMC", "assay": "Stimulation of immune response in human PBMC assessed as induction of IFN-gamma production at 150 ug/ml after 24 hrs", "assay_type": "functional, cell-based"}, "PBMC [11]": {"tested_on": "PBMC", "assay": "Stimulation of immune response in human PBMC assessed as induction of MCP1 production at 150 ug/ml after 24 hrs", "assay_type": "functional, cell-based"}, "PBMC [12]": {"tested_on": "PBMC", "assay": "Stimulation of immune response in human PBMC assessed as induction of RANTES production at 150 ug/ml after 24 hrs", "assay_type": "functional, cell-based"}, "PBMC [13]": {"tested_on": "PBMC", "assay": "Stimulation of immune response in human PBMC assessed as induction of MIP1alpha production at 150 ug/ml after 24 hrs", "assay_type": "functional, cell-based"}, "PBMC [14]": {"tested_on": "PBMC", "assay": "Stimulation of immune response in human PBMC assessed as induction of MIP1beta production at 150 ug/ml after 24 hrs", "assay_type": "functional, cell-based"}, "PBMC [15]": {"tested_on": "PBMC", "assay": "Stimulation of immune response in human PBMC assessed as induction of TNFalpha production at 150 ug/ml after 24 hrs", "assay_type": "functional, cell-based"}, "Homo sapiens [16]": {"organism": "Homo sapiens", "assay": "Stimulation of immune response in human pDC assessed as induction of IFN-gamma production at 150 ug/ml after 24 hrs", "assay_type": "functional"}, "Homo sapiens [17]": {"organism": "Homo sapiens", "assay": "Stimulation of immune response in human pDC assessed as induction of IFNalpha production at 150 ug/ml after 24 hrs", "assay_type": "functional"}, "Homo sapiens [18]": {"organism": "Homo sapiens", "assay": "Stimulation of immune response in human pDC assessed as induction of IL12 production at 150 ug/ml after 24 hrs", "assay_type": "functional"}, "Homo sapiens [19]": {"organism": "Homo sapiens", "assay": "Stimulation of immune response in human pDC assessed as induction of TNFalpha production at 150 ug/ml after 24 hrs", "assay_type": "functional"}, "Homo sapiens [20]": {"organism": "Homo sapiens", "assay": "Stimulation of immune response in human pDC assessed as induction of MIP1alpha production at 150 ug/ml after 24 hrs", "assay_type": "functional"}, "Homo sapiens [21]": {"organism": "Homo sapiens", "assay": "Stimulation of immune response in human pDC assessed as induction of MIP1beta production at 150 ug/ml after 24 hrs", "assay_type": "functional"}, "Mus musculus": {"tested_on": "Mus musculus", "assay": "Stimulation of immune response in C57BL/6 mouse assessed as induction of serum IL12 production at 50 mg/kg, sc after 2 hrs by luminex multiplex assay", "assay_type": "functional, organism-based", "parameters": "dose 50 mg/kg"}}, "note": "Activity calls are given as the source filed them. The calls are words filed in the database; no cut-off is given here."}
{"smiles": "Nc1ccn([C@@H]2O[C@H](COP(=O)(S)O[C@H]3[C@@H](O)[C@H](n4ccc(=O)[nH]c4=O)O[C@@H]3COP(=O)(S)O[C@H]3[C@@H](O)[C@H](n4ccc(=O)[nH]c4=O)O[C@@H]3COP(=O)(S)O[C@H]3[C@H](O)[C@H](n4cnc5c(=O)[nH]c(N)nc54)O[C@@H]3COP(=O)(S)O[C@H]3[C@@H](O)[C@H](n4ccc(=O)[nH]c4=O)O[C@@H]3COP(=O)(S)O[C@H]3[C@H](O)[C@H](n4cnc5c(=O)[nH]c(N)nc54)O[C@@H]3COP(=O)(S)OCC(O)COP(=O)(S)O[C@H]3[C@H](O)[C@H](n4cnc5c(=O)[nH]c(N)nc54)O[C@@H]3COP(=O)(S)O[C@H]3[C@@H](O)[C@H](n4ccc(=O)[nH]c4=O)O[C@@H]3COP(=O)(S)O[C@H]3[C@H](O)[C@H](n4cnc5c(=O)[nH]c(N)nc54)O[C@@H]3COP(=O)(S)O[C@H]3[C@@H](O)[C@H](n4ccc(=O)[nH]c4=O)O[C@@H]3COP(=O)(S)O[C@H]3[C@@H](O)[C@H](n4ccc(=O)[nH]c4=O)O[C@@H]3COP(=O)(S)O[C@H]3[C@@H](O)[C@H](n4ccc(N)nc4=O)O[C@@H]3COP(=O)(S)O[C@H]3[C@H](O)[C@H](n4cnc5c(=O)[nH]c(N)nc54)O[C@@H]3COP(=O)(S)O[C@H]3[C@@H](O)[C@H](n4ccc(=O)[nH]c4=O)O[C@@H]3COP(=O)(S)O[C@H]3[C@@H](O)[C@H](n4ccc(N)nc4=O)O[C@@H]3COP(=O)(S)O[C@H]3[C@H](O)[C@H](n4cnc5c(=O)[nH]c(N)nc54)O[C@@H]3COP(=O)(S)O[C@H]3[C@@H](O)[C@H](n4ccc(=O)[nH]c4=O)O[C@@H]3CO)[C@@H](OP(=O)(S)OC[C@H]3O[C@@H](n4cnc5c(=O)[nH]c(N)nc54)[C@@H](O)[C@@H]3OP(=O)(S)OC[C@H]3O[C@@H](n4ccc(=O)[nH]c4=O)[C@H](O)[C@@H]3OP(=O)(S)OC[C@H]3O[C@@H](n4ccc(N)nc4=O)[C@H](O)[C@@H]3OP(=O)(S)OC[C@H]3O[C@@H](n4cnc5c(=O)[nH]c(N)nc54)[C@@H](O)[C@@H]3OP(=O)(S)OC[C@H]3O[C@@H](n4ccc(=O)[nH]c4=O)[C@H](O)[C@@H]3OP(=O)(O)S)[C@H]2O)c(=O)n1", "note": "(some centres not stated)", "values": [{"measurement": "remaining at 10 min", "setting": "[1]", "result": 76, "unit": "%"}, {"measurement": "Activity", "setting": "[2]", "result": "Dose-dependent effect"}, {"measurement": "Activity", "setting": "[3]", "result": "inactive"}, {"measurement": "Activity", "setting": "PBMC [4]", "result": "Active"}, {"measurement": "Activity", "setting": "PBMC [5]", "result": "Active"}, {"measurement": "Activity", "setting": "PBMC [6]", "result": "Active"}, {"measurement": "Activity", "setting": "PBMC [7]", "result": "Active"}, {"measurement": "Activity", "setting": "PBMC [8]", "result": "Active"}, {"measurement": "Activity", "setting": "PBMC [9]", "result": "Active"}, {"measurement": "Activity", "setting": "PBMC [10]", "result": "Active"}, {"measurement": "Activity", "setting": "PBMC [11]", "result": "Active"}, {"measurement": "Activity", "setting": "PBMC [12]", "result": "Active"}, {"measurement": "Activity", "setting": "PBMC [13]", "result": "Active"}, {"measurement": "Activity", "setting": "PBMC [14]", "result": "Active"}, {"measurement": "Activity", "setting": "PBMC [15]", "result": "Active"}, {"measurement": "Activity", "setting": "Homo sapiens [16]", "result": "Active"}, {"measurement": "Activity", "setting": "Homo sapiens [17]", "result": "inactive"}, {"measurement": "Activity", "setting": "Homo sapiens [18]", "result": "Active"}, {"measurement": "Activity", "setting": "Homo sapiens [19]", "result": "Active"}, {"measurement": "Activity", "setting": "Homo sapiens [20]", "result": "Active"}, {"measurement": "Activity", "setting": "Homo sapiens [21]", "result": "Active"}, {"measurement": "Activity", "setting": "Mus musculus", "result": "inactive"}]}
